Source: patent US20070191333A1, “Antibacterial agents” (Warner Lambert Company LLC, priority 2003, published 2007)
Converted amounts (≈) assume the structure as drawn. Like-named read-outs stand apart in the source and are kept apart here.

Legend:
Assay type in all cases: cell-based
E. faecalis MGH-2 = assay: Antibacterial microtitration MIC, E. faecalis MGH-2; settings: strain MGH-2; for MIC: Enterococcus faecalis, MGH2, Gram Positive Bacteria, read-out: Minimum Inhibitory Concentrations E. faecalis MGH-2
Method: (§1) Test A—Antibacterial Assays The compounds of the present invention were tested against an assortment of Gram-negative and Gram-positive organisms using standard microtitration techniques (Cohen et. al., Antimicrob., 1985; 28:766; Heifetz, et. al., Antimicrob., 1974; 6:124).

S pyogenes C203 = assay: Antibacterial microtitration MIC, S pyogenes C203; settings: Gram Positive Bacteria, strain C203; for MIC: read-out: Minimum Inhibitory Concentrations S pyogenes C203
Method: as §1

S. pneumo SV-1 = assay: Antibacterial microtitration MIC, S. pneumo SV-1; settings: Gram Positive Bacteria, strain SV-1; for MIC: read-out: Minimum Inhibitory Concentrations S. pneumo SV-1
Method: as §1

S. aureus UC-76 = assay: Antibacterial microtitration MIC, S. aureus UC-76; settings: strain UC-76; for MIC: Staphylococcus aureus, UC76, Gram Positive Bacteria, read-out: Minimum Inhibitory Concentrations S. aureus UC-76
Method: as §1

H. influenzae HI-3542 = assay: Antibacterial microtitration MIC, H. influenzae HI-3542; settings: strain HI-3542; for MIC: Haemophilus influenzae, HI3542, Gram Negative Bacteria, read-out: Minimum Inhibitory Concentrations H. influenzae HI-3542
Method: as §1

E. coli 2026 = assay: Antibacterial microtitration MIC, E. coli 2026; settings: strain 2026; for MIC: read-out: Minimum Inhibitory Concentrations E. coli 2026
Method: as §1

M. catarrhalis BC-3531 = assay: Antibacterial microtitration MIC, M. catarrhalis BC-3531; settings: strain BC-3531; for MIC: Moraxella catarrhalis, BC3531, Gram Negative Bacteria, read-out: Minimum Inhibitory Concentrations M. catarrhalis BC-3531
Method: as §1

[1] = Escherichia coli, Gram Negative Bacteria
[2] = Escherichia coli, 2026, Gram Negative Bacteria

| MIC (E. faecalis MGH-2) [µg/mL] | MIC (S pyogenes C203) [µg/mL] | MIC (S. aureus UC-76) [µg/mL] | SMILES | MIC (S. pneumo SV-1) [µg/mL] | MIC (H. influenzae HI-3542) [µg/mL] | MIC (M. catarrhalis BC-3531) [µg/mL] | also measured |
| --- | --- | --- | --- | --- | --- | --- | --- |
| – | – | – | COc1c(N2C[C@@H]3CCC(NCCC#N)[C@@H]3C2)c(F)cc2c(=O)n(N)c(=O)n(C3CC3)c12 (some centres unmarked) [drawing 398] | – | 8 (≈ 18.1 µM) | 64 (≈ 145 µM) | MIC (E. coli 2026; [1]): 64 µg/mL (≈ 145 µM) |
| – | – | – | COc1c(N2CC(CNCCC#N)C3(CC3)C2)c(F)cc2c(=O)n(N)c(=O)n(C3CC3)c12 (centres unmarked) [drawing 404] | – | 1 (≈ 2.26 µM) | 8 (≈ 18.1 µM) | MIC (E. coli 2026; [2]): 2 µg/mL (≈ 4.52 µM) |
| 32 (≈ 77.2 µM) | 32 (≈ 77.2 µM) | 12 (≈ 29 µM) | Cc1c(N2CCC(C(N)C(C)(C)C#N)C2)c(F)cc2c(=O)n(N)c(=O)n(C3CC3)c12 (centres unmarked) [drawing 419] | – | – | – | Minimum Inhibitory Concentrations S. pneumo SV-1 (S. pneumo SV-1): 32 µg/mL |
| – | – | – | Cc1c(N2CC[C@@H]([C@@H](N)CC#N)C2)c(F)cc2c(=O)[nH]c(=O)n(C3CC3)c12 (single isomer, unassigned) [drawing 409] | – | – | – | Minimum Inhibitory Concentrations E. faecalis MGH-2 (E. faecalis MGH-2; Gram Positive Bacteria): 1 µg/mL; Minimum Inhibitory Concentrations S pyogenes C203 (S pyogenes C203): 0.25 µg/mL; Minimum Inhibitory Concentrations S. pneumo SV-1 (S. pneumo SV-1): 0.125 µg/mL; Minimum Inhibitory Concentrations S. aureus UC-76 (S. aureus UC-76; Gram Positive Bacteria): 0.5 µg/mL |
| 0.25 (≈ 0.647 µM) | 0.03 (≈ 0.0776 µM) | 0.125 (≈ 0.323 µM) | Cc1c(N2CC[C@@H]([C@@H](N)CC#N)C2)c(F)cc2c(=O)n(N)c(=O)n(C3CC3)c12 (single isomer, unassigned) [drawing 407] | 0.06 (≈ 0.155 µM) | – | – | – |
| – | – | – | COc1c(N2CCC(C(N)CC#N)C2)c(F)cc2c(=O)n(N)c(=O)n(C3CC3)c12 (centres unmarked) [drawing 393] | – | 8 (≈ 19.9 µM) | 16 (≈ 39.8 µM) | MIC (E. coli 2026; [2]): 64 µg/mL (≈ 159 µM) |
| 2 (≈ 4.81 µM) | 0.5 (≈ 1.2 µM) | 1 (≈ 2.41 µM) | COc1c(N2CC[C@@H]([C@H](C)NCCC#N)C2)c(F)cc2c(=O)[nH]c(=O)n(C3CC3)c12 (single isomer, unassigned) [drawing 418] | 0.25 (≈ 0.602 µM) | – | – | – |
| – | – | – | Cc1c(N2CC[C@@H](C(NCCC#N)c3ncco3)C2)c(F)cc2c(=O)n(N)c(=O)n(C3CC3)c12 (some centres unmarked) [drawing 399] | – | 4 (≈ 8.56 µM) | 16 (≈ 34.2 µM) | MIC (E. coli 2026; [1]): 16 µg/mL (≈ 34.2 µM) |
| – | – | – | Cc1c(N2CC[C@H]([C@H](N)CC#N)C2)c(F)cc2c(=O)n(N)c(=O)n(C3CC3)c12 (racemic) [drawing 389] | – | 4 (≈ 10.4 µM) | 16 (≈ 41.4 µM) | MIC (E. coli 2026; [2]): 32 µg/mL (≈ 82.8 µM) |
| – | – | – | Cc1c(N2CC[C@@H]([C@@H](N)CC#N)C2)c(F)cc2c(=O)n(N)c(=O)n(C3CC3)c12 (single isomer, unassigned) [drawing 390] | – | 1 (≈ 2.59 µM) | 2 (≈ 5.18 µM) | MIC (E. coli 2026; [2]): 8 µg/mL (≈ 20.7 µM) |
| – | – | – | Cc1c(N2C[C@H](CNCCC#N)[C@@H](F)C2)c(F)cc2c(=O)n(N)c(=O)n(C3CC3)c12 (racemic) [drawing 397] | – | 8 (≈ 19.1 µM) | 16 (≈ 38.2 µM) | MIC (E. coli 2026; [1]): 32 µg/mL (≈ 76.5 µM) |
| – | – | – | Cc1c(N2CC[C@@H]([C@@H](N)CC#N)C2)c(F)cc2c(=O)[nH]c(=O)n(C3CC3)c12 (single isomer, unassigned) [drawing 392] | – | – | – | Minimum Inhibitory Concentrations H. influenzae HI-3542 (H. influenzae HI-3542; Gram Negative Bacteria): 2 µg/mL; Minimum Inhibitory Concentrations E. coli 2026 (E. coli 2026; Gram Negative Bacteria): 8 µg/mL; Minimum Inhibitory Concentrations M. catarrhalis BC-3531 (M. catarrhalis BC-3531; Gram Negative Bacteria): 4 µg/mL |
| 1 (≈ 2.26 µM) | 0.06 (≈ 0.136 µM) | 0.25 (≈ 0.565 µM) | COc1c(N2CC(CNCCC#N)C3(CC3)C2)c(F)cc2c(=O)n(N)c(=O)n(C3CC3)c12 (centres unmarked) [drawing 421] | 0.06 (≈ 0.136 µM) | – | – | – |
| – | – | – | Cc1c(N2C[C@@H](CNCCC#N)[C@H](C)C2)c(F)cc2c(=O)n(N)c(=O)n(C3CC3)c12 (stereo in doubt) | – | 2 (≈ 4.83 µM) | 4 (≈ 9.65 µM) | MIC (E. coli 2026; [1]): 8 µg/mL (≈ 19.3 µM) |

| SMILES | MIC (E. faecalis MGH-2) [µg/mL] | MIC (S pyogenes C203) [µg/mL] | MIC (S. aureus UC-76) [µg/mL] | MIC (S. pneumo SV-1) [µg/mL] | MIC (H. influenzae HI-3542) [µg/mL] | MIC (M. catarrhalis BC-3531) [µg/mL] | also measured |
| --- | --- | --- | --- | --- | --- | --- | --- |
| Cc1c(N2CC[C@@H](C(NCCC#N)c3ncco3)C2)c(F)cc2c(=O)n(N)c(=O)n(C3CC3)c12 (some centres unmarked) [drawing 416] | 32 (≈ 68.4 µM) | 8 (≈ 17.1 µM) | 8 (≈ 17.1 µM) | 8 (≈ 17.1 µM) | – | – | – |
| Cc1c(N2C[C@H](CNCCC#N)[C@@H](F)C2)c(F)cc2c(=O)n(N)c(=O)n(C3CC3)c12 (racemic) [drawing 414] | 4 (≈ 9.56 µM) | 1 (≈ 2.39 µM) | 2 (≈ 4.78 µM) | 1 (≈ 2.39 µM) | – | – | – |
| Cc1c(N2C[C@@H](CNCCC#N)[C@H](C)C2)c(F)cc2c(=O)n(N)c(=O)n(C3CC3)c12 (single isomer, unassigned) | 0.5 (≈ 1.21 µM) | 0.06 (≈ 0.145 µM) | 0.25 (≈ 0.603 µM) | 0.06 (≈ 0.145 µM) | – | – | – |
